Laboratory results from ChEMBL document CHEMBL5325400 (Eur J Med Chem, 2023).
pIC50: −log10 of the molar value.

Key:
Format in all cases: functional, cell-based
HeLa = test: Antiproliferative activity against human HeLa cells assessed as inhibition of cell growth measured after 48 hrs by MTT assay
MDA-MB-231 = test: Antiproliferative activity against human MDA-MB-231 cells assessed as inhibition of cell growth measured after 48 hrs by MTT assay; settings: MDA-MB-231, 48 h
SK-OV-3 = test: Antiproliferative activity against human SK-OV-3 cells assessed as inhibition of cell growth measured after 48 hrs by MTT assay; settings: SK-OV-3, 48 h
A549 = test: Antiproliferative activity against human A549 cells assessed as inhibition of cell growth measured after 48 hrs by MTT assay; settings: A549, 48 h
B16-F10 = test: Antiproliferative activity against mouse B16-F10 cells assessed as inhibition of cell growth measured after 48 hrs by MTT assay; settings: B16-F10, 48 h
HepG2 = test: Antiproliferative activity against human HepG2 cells assessed as inhibition of cell growth measured after 48 hrs by MTT assay; settings: HepG2, 48 h

SMILES | pIC50 (HeLa) | pIC50 (MDA-MB-231) | pIC50 (SK-OV-3) | pIC50 (A549) | pIC50 (B16-F10) | pIC50 (HepG2)
COc1cccc(Nc2cc(Nc3cccc(NC(=O)C4CCCC4)c3)ncn2)c1 | 7.38 | 6.98 | 8.02 | 6.70 | < 6.00 | 6.80
COc1cccc(Nc2cc(Nc3cccc(NC(=O)C(C)(C)C)c3)ncn2)c1 | < 6.00 | < 6.00 | < 6.00 | < 6.00 | < 6.00 | < 6.00
COc1cccc(Nc2cc(Nc3cccc(NC(=O)C4CC4)c3)nc(C)n2)c1 | 6.92 | < 6.00 | 6.81 | < 6.00 | 8.02 | 7.03
CCC(=O)Nc1cccc(Nc2cc(Nc3cccc(OC)c3)ncn2)c1 | 8.17 | < 6.00 | 7.85 | 6.56 | 6.41 | 7.00
Cc1nc(Nc2cccc(NC(=O)C3CC3)c2)cc(Nc2cccc(C(F)(F)F)c2)n1 | < 6.00 | < 6.00 | 6.91 | < 6.00 | 6.25 | 7.19
COc1cccc(Nc2cc(Nc3cccc(NS(=O)(=O)C4CCCCC4)c3)ncn2)c1 | < 6.00 | < 6.00 | 6.54 | < 6.00 | < 6.00 | < 6.00
Cc1c(F)cccc1Nc1cc(Nc2cccc(NC(=O)C3CC3)c2)ncn1 | 7.21 | 7.63 | 7.50 | 7.55 | 7.75 | 6.37
COc1nc(Nc2cccc(NC(=O)C3CC3)c2)cc(Nc2cccc(C(F)(F)F)c2)n1 | < 6.00 | < 6.00 | < 6.00 | < 6.00 | < 6.00 | < 6.00
O=C(Nc1cccc(Nc2nc(Nc3cccc(C(F)(F)F)c3)nc3ccccc23)c1)C1CC1 | < 6.00 | < 6.00 | < 6.00 | < 6.00 | < 6.00 | < 6.00
O=C(Nc1cccc(Nc2nc(Nc3cccc(C(F)(F)F)c3)nc3ccsc23)c1)C1CC1 | < 6.00 | < 6.00 | < 6.00 | < 6.00 | < 6.00 | < 6.00
COc1cccc(Oc2cc(Nc3cccc(NC(=O)C4CC4)c3)ncn2)c1 | 6.32 | 6.81 | 7.16 | 7.17 | 7.08 | 7.64
COc1cccc(Nc2nc(Nc3cccc(NC(=O)C4CC4)c3)c3sccc3n2)c1 | < 6.00 | < 6.00 | < 6.00 | < 6.00 | < 6.00 | < 6.00
COc1cc(Nc2cc(Nc3cccc(NC(=O)C4CC4)c3)ncn2)ccc1Cl | 6.40 | 6.45 | 6.09 | 6.26 | 6.33 | 6.43
COc1cccc(Nc2nc(Nc3cccc(NC(=O)C4CC4)c3)c3ccccc3n2)c1 | < 6.00 | < 6.00 | < 6.00 | < 6.00 | < 6.00 | < 6.00
O=C(Nc1cccc(Nc2nc(Nc3cccc(C(F)(F)F)c3)nc3sccc23)c1)C1CC1 | < 6.00 | < 6.00 | < 6.00 | < 6.00 | < 6.00 | < 6.00
COc1cccc(Nc2cc(Nc3cccc(NC(=O)C4CCCCC4)c3)ncn2)c1 | 7.28 | < 6.00 | 7.63 | 7.08 | 6.50 | 6.78
COc1cccc(Nc2nc(Nc3cccc(NC(=O)C4CC4)c3)nc3ccsc23)c1 | < 6.00 | 6.21 | < 6.00 | < 6.00 | < 6.00 | < 6.00
O=C(Nc1cccc(Nc2nc(Nc3cccc(C(F)(F)F)c3)c3ccccc3n2)c1)C1CC1 | < 6.00 | < 6.00 | < 6.00 | < 6.00 | < 6.00 | < 6.00
O=C(NCCCNc1cc(Nc2cccc(C(F)(F)F)c2)ncn1)C1CC1 | < 6.00 | < 6.00 | < 6.00 | < 6.00 | < 6.00 | < 6.00
CC(=O)c1cccc(Nc2cc(Nc3cccc(NC(=O)C4CC4)c3)ncn2)c1 | 7.65 | 7.19 | 7.50 | 6.29 | 6.78 | 6.90
COc1cccc(Nc2cc(Nc3cccc(C(=O)NC4CC4)c3)ncn2)c1 | < 6.00 | < 6.00 | < 6.00 | < 6.00 | < 6.00 | < 6.00
COc1cccc(Nc2cc(Nc3cccc(C(=O)NC4CCCC4)c3)ncn2)c1 | < 6.00 | < 6.00 | < 6.00 | < 6.00 | < 6.00 | < 6.00

SMILES | pIC50 (HeLa) | pIC50 (MDA-MB-231) | pIC50 (SK-OV-3) | pIC50 (A549) | pIC50 (B16-F10) | pIC50 (HepG2)
COc1cccc(Nc2cc(Nc3cccc(NC(=O)C(C)C)c3)ncn2)c1 | < 6.00 | 6.19 | 7.39 | 6.52 | < 6.00 | < 6.00
O=C(Nc1cccc(Nc2cc(Nc3cccc(C(F)F)c3)ncn2)c1)C1CC1 | 7.31 | 7.41 | 8.68 | 8.03 | 7.21 | 7.81
COc1cccc(Nc2nc(Nc3cccc(NC(=O)C4CC4)c3)nc3sccc23)c1 | < 6.00 | < 6.00 | < 6.00 | < 6.00 | < 6.00 | < 6.00
O=C(Nc1cccc(Nc2cc(N3CCOc4ccccc43)ncn2)c1)C1CC1 | 6.46 | 6.25 | 7.07 | < 6.00 | < 6.00 | 7.46
COc1cc(Nc2cc(Nc3cccc(NC(=O)C4CC4)c3)ncn2)ccc1F | 7.18 | 6.97 | 7.37 | 6.66 | 6.70 | 6.47
O=C(Nc1cccc(Nc2cc(N3CCc4c3cccc4C(F)(F)F)ncn2)c1)C1CC1 | < 6.00 | < 6.00 | < 6.00 | < 6.00 | < 6.00 | < 6.00
COc1cccc(Nc2cc(Nc3cccc(NS(=O)(=O)C4CC4)c3)ncn2)c1 | 6.89 | 6.36 | 7.25 | 7.09 | 7.27 | 6.55
Cc1cccc2c1CCN2c1cc(Nc2cccc(NC(=O)C3CC3)c2)ncn1 | < 6.00 | < 6.00 | < 6.00 | < 6.00 | < 6.00 | < 6.00
COc1ccc(C)c(Nc2cc(Nc3cccc(NC(=O)C4CC4)c3)ncn2)c1 | 7.75 | 7.31 | 7.24 | 8.70 | 8.64 | 7.45
COc1cccc(Nc2cc(Nc3ccc(NC(=O)C4CC4)cc3)ncn2)c1 | < 6.00 | < 6.00 | < 6.00 | < 6.00 | < 6.00 | < 6.00
COc1cccc(Nc2cc(Nc3cccc(C(=O)NC4CCCCC4)c3)ncn2)c1 | < 6.00 | < 6.00 | < 6.00 | < 6.00 | < 6.00 | < 6.00
O=C(Nc1cccc(Nc2cc(N3CCc4ccccc43)ncn2)c1)C1CC1 | < 6.00 | < 6.00 | < 6.00 | < 6.00 | < 6.00 | < 6.00
CCOc1cccc(Nc2cc(Nc3cccc(NC(=O)C4CC4)c3)ncn2)c1 | 6.21 | 8.72 | 7.76 | 6.76 | 7.68 | 6.89
COc1cccc(Nc2nc(Nc3cccc(NC(=O)C4CC4)c3)nc3ccccc23)c1 | < 6.00 | 6.91 | 6.06 | < 6.00 | 6.77 | < 6.00
COc1cccc(Nc2nc(Nc3cccc(NC(=O)C4CC4)c3)c3ccsc3n2)c1 | < 6.00 | < 6.00 | < 6.00 | < 6.00 | < 6.00 | < 6.00
O=C(Nc1cncc(Nc2cc(Nc3cccc(C(F)(F)F)c3)ncn2)c1)C1CC1 | < 6.00 | < 6.00 | < 6.00 | < 6.00 | < 6.00 | < 6.00
CCc1cccc(Nc2cc(Nc3cccc(NC(=O)C4CC4)c3)ncn2)c1 | 8.49 | 8.51 | 8.72 | 7.63 | 7.33 | 6.50
O=C(Nc1cccc(Nc2nc(Nc3cccc(C(F)(F)F)c3)c3sccc3n2)c1)C1CC1 | < 6.00 | < 6.00 | < 6.00 | < 6.00 | < 6.00 | < 6.00
COc1cccc(Nc2cc(Nc3cccc(NC(=O)C4CC4)c3)ncn2)c1F | 7.34 | 7.50 | 7.57 | 8.32 | 6.74 | 6.50
COc1cccc(Nc2cc(Nc3cccc(OC)c3)ncn2)c1 | < 6.00 | < 6.00 | < 6.00 | < 6.00 | < 6.00 | < 6.00
Cc1cc(NC(=O)C2CC2)cc(Nc2cc(Nc3cccc(C(F)(F)F)c3)ncn2)c1 | 6.30 | < 6.00 | 7.50 | < 6.00 | 6.35 | 6.70
